Source: the NIST ThermoML archive (doi:10.1016/j.jct.2017.06.001)

Test: xn = mol fraction of the nth substance listed
Details: 100 kPa, Liquid; for mass density: 308.15 K, Vibrating tube method; for speed of sound: 313.15 K, Frequency=5 MHz, Pulse-echo method

OCCCCCO [1,5-pentanediol] + O
Details | mass density [kg/m3] | speed of sound [m/s]
x1 = 0.0002 | – | 1529.3
x1 = 0.0004 | – | 1529.9
x1 = 0.0006 | – | 1530.6
x1 = 0.0009 | – | 1531.5
x1 = 0.0013 | – | 1532.4
x1 = 0.0016 | – | 1533.4
x1 = 0.002 | – | 1534.5
x1 = 0.0025 | – | 1535.9
x1 = 0.0032 | – | 1537.6
x1 = 0.0039 | – | 1539.6
x1 = 0.0045 | – | 1541.2
x1 = 0.0052 | – | 1542.9
x1 = 0.0058 | – | 1544.6
x1 = 0.0065 | – | 1546.5
x1 = 0.0073 | – | 1548.3
x1 = 0.0081 | – | 1550.4
x1 = 0.0088 | – | 1552.1
x1 = 0.0097 | – | 1554.2
x1 = 0.0107 | – | 1556.6
x1 = 0.0118 | – | 1559
x1 = 0.013 | – | 1561.7
x1 = 0.0142 | – | 1564.4
x1 = 0.0153 | – | 1566.8
x1 = 0.0164 | – | 1569.2
x1 = 0.0176 | – | 1571.6
x1 = 0.0187 | – | 1573.8
x1 = 0.02 | – | 1576.4
x1 = 0.0214 | – | 1579
x1 = 0.0227 | – | 1581.5
x1 = 0.0243 | – | 1584.4
x1 = 0.0259 | – | 1587.2
x1 = 0.0276 | – | 1590
x1 = 0.0293 | – | 1592.8
x1 = 0.0308 | – | 1595.3
x1 = 0.0322 | – | 1597.4
x1 = 0.0341 | – | 1600.2
x1 = 0.036 | – | 1602.9
x1 = 0.0378 | – | 1605.4
x1 = 0.0395 | – | 1607.7
x1 = 0.0417 | – | 1610.5
x1 = 0.0441 | – | 1613.4
x1 = 0.0462 | – | 1615.8
x1 = 0.0486 | – | 1618.4
x1 = 0.0505 | – | 1620.4
x1 = 0.0522 | – | 1622.1
x1 = 0.0542 | – | 1624.1
x1 = 0.0571 | – | 1626.6
x1 = 0.0588 | – | 1628.1
x1 = 0.0608 | – | 1629.8
x1 = 0.0624 | – | 1631.2
x1 = 0.0648 | – | 1632.9
x1 = 0.0682 | – | 1635.4
x1 = 0.0705 | – | 1636.9
x1 = 0.0732 | – | 1638.6
x1 = 0.0767 | – | 1640.7
x1 = 0.0802 | – | 1642.6
x1 = 0.0837 | – | 1644.2
x1 = 0.0875 | – | 1646
x1 = 0.0918 | – | 1647.7
x1 = 0.0975 | – | 1649.7
x1 = 0.1013 | – | 1650.9
x1 = 0.106 | – | 1652.2
x1 = 0.1096 | – | 1653
x1 = 0.2503 | 995.17 | –
x1 = 0.3 | 994.06 | –
x1 = 0.3343 | 993.37 | –
x1 = 0.4171 | 991.68 | –
x1 = 0.454 | 990.78 | –
x1 = 0.5003 | 989.8 | –
x1 = 0.5362 | 989.1 | –
x1 = 0.6177 | 987.6 | –
x1 = 0.6478 | 987 | –
x1 = 0.7025 | 986.1 | –
x1 = 0.7504 | 985.3 | –
x1 = 0.7927 | 984.6 | –
x1 = 0.8605 | 983.4 | –
x1 = 0.9004 | 982.7 | –
x1 = 0.9496 | 981.7 | –
x1 = 1 | 980.7 | –
